Biological target: T1, Leukotriene C4 synthase (Cavia porcellus, UniProt A6XA80);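 note: enzyme inhibition assay of leukotriene C4 synthase, using LTA4 as the substrate; in other assays of this panel Not Active means under 50% inhibition at 10 µM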
T1 sequence (A6XA80 whole entry): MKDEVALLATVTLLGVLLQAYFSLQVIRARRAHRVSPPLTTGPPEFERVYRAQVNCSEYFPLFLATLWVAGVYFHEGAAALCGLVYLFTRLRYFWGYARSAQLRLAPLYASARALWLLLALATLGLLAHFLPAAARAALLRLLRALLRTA
Assay: biochemical
Format: tissue-based, Lung
Settings: not given

Compound	IC50	Ki
C=C1C(=O)O[C@@H]2C3O[C@]3(C)CC/C=C(\C)CC[C@@H]12 (stereo partly specified)	Not Active	–
CCOC(=O)c1ccc(N)cc1 [BENZOCAINE]	Not Active	–
OXALIPLATIN	Not Active	Not Active
CCCCCCCCCc1ccc(O)cc1 [4-NONYLPHENOL]	Not Active	–
c1ccc2c(c1)cc1ccc3cccc4ccc2c1c34	Not Active	–
CNCCC=C1c2ccccc2CCc2ccccc21 [NORTRIPTYLINE]	Not Active	–

Biological target: C-C chemokine receptor type 2 (Homo sapiens, UniProt P41597); note: in other assays of this panel Not Active means under 50% inhibition at 10 µM
Assay: not given
Format: cell membranes, CHO-K1, Membrane
Settings: cho-k1

Chain of C-C chemokine receptor type 2 (P41597 whole entry): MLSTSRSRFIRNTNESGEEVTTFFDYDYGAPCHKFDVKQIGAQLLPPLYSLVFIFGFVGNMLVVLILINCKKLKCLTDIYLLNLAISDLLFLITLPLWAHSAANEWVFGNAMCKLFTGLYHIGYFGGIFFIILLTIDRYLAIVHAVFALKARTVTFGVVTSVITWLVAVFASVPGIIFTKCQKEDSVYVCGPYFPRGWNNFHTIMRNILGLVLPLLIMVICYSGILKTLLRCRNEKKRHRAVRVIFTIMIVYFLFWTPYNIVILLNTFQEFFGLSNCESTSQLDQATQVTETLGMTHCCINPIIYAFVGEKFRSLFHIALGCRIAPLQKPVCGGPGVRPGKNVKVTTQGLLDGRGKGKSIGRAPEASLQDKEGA

Compound	IC50	Ki
C=C1C(=O)O[C@@H]2C3O[C@]3(C)CC/C=C(\C)CC[C@@H]12 (stereo partly specified)	Not Active	–
CCOC(=O)c1ccc(N)cc1 [BENZOCAINE]	Not Active	–
OXALIPLATIN	Not Active	Not Active
CCCCCCCCCc1ccc(O)cc1 [4-NONYLPHENOL]	Not Active	–
c1ccc2c(c1)cc1ccc3cccc4ccc2c1c34	Not Active	–
CNCCC=C1c2ccccc2CCc2ccccc21 [NORTRIPTYLINE]	Not Active	–

Biological target: T2, Neutrophil elastase (Homo sapiens, UniProt P08246);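 note: inhibition of neutrophil elastase enzyme activity, measured with a p-nitroanilide-linked peptide substrate; in other assays of this panel Not Active means under 50% inhibition at 10 µM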
T2 sequence (P08246 whole entry): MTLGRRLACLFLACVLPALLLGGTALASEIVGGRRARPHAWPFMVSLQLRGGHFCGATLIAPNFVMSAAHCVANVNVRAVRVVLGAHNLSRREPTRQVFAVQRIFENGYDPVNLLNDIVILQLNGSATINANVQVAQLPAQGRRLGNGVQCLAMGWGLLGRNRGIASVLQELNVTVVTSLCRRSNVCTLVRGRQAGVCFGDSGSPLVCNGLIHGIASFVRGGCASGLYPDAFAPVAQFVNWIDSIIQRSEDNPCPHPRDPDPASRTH
Assay: not given
Format: tissue-based
Settings: not given

Compound	IC50	Ki
C=C1C(=O)O[C@@H]2C3O[C@]3(C)CC/C=C(\C)CC[C@@H]12 (stereo partly specified)	Not Active	–
CCOC(=O)c1ccc(N)cc1 [BENZOCAINE]	Not Active	–
OXALIPLATIN	Not Active	Not Active
CCCCCCCCCc1ccc(O)cc1 [4-NONYLPHENOL]	Not Active	–
c1ccc2c(c1)cc1ccc3cccc4ccc2c1c34	Not Active	–
CNCCC=C1c2ccccc2CCc2ccccc21 [NORTRIPTYLINE]	Not Active	–

Biological target: Estrogen receptor beta (Homo sapiens, UniProt Q92731); note: in other assays of this panel Not Active means under 50% inhibition at 10 µM
Assay: not given
Settings: sf9

Chain of Estrogen receptor beta (Q92731 whole entry): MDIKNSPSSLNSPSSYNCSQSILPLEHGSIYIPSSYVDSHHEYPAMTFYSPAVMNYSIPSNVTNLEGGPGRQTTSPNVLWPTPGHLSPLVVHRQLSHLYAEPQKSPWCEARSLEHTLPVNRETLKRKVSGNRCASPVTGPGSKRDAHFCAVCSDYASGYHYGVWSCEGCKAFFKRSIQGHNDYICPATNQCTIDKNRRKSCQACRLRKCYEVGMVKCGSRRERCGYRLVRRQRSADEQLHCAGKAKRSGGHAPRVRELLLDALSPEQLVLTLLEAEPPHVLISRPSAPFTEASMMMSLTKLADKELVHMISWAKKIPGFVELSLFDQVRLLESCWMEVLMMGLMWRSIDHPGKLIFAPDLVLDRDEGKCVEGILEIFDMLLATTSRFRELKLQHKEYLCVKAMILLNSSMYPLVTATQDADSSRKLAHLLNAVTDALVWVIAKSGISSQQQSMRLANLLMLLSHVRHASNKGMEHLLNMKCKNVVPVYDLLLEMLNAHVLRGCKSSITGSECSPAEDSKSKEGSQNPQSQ

Compound	IC50	Ki
C=C1C(=O)O[C@@H]2C3O[C@]3(C)CC/C=C(\C)CC[C@@H]12 (stereo partly specified)	Not Active	–
CCOC(=O)c1ccc(N)cc1 [BENZOCAINE]	Not Active	–
OXALIPLATIN	Not Active	Not Active
CCCCCCCCCc1ccc(O)cc1 [4-NONYLPHENOL]	Not Active	–
c1ccc2c(c1)cc1ccc3cccc4ccc2c1c34	Not Active	–
CNCCC=C1c2ccccc2CCc2ccccc21 [NORTRIPTYLINE]	Not Active	–

Tested on: not listed separately
Assay: DRUGMATRIX: Glutamate, Kainate radioligand binding (ligand: [3H] Kainic acid)
Format: cell membranes, Rattus norvegicus, Wistar, Brain, Membrane
Settings: Not Active = under 50% inhibition at 10 µM

Compound	IC50	Ki
C=C1C(=O)O[C@@H]2C3O[C@]3(C)CC/C=C(\C)CC[C@@H]12 (stereo partly specified)	Not Active	Not Active
CCOC(=O)c1ccc(N)cc1 [BENZOCAINE]	Not Active	Not Active
OXALIPLATIN	Not Active	Not Active
CCCCCCCCCc1ccc(O)cc1 [4-NONYLPHENOL]	Not Active	Not Active
c1ccc2c(c1)cc1ccc3cccc4ccc2c1c34	Not Active	Not Active
CNCCC=C1c2ccccc2CCc2ccccc21 [NORTRIPTYLINE]	Not Active	Not Active

Tested on: not listed separately
Assay: DRUGMATRIX: Glutamate, AMPA radioligand binding (ligand: [3H] AMPA)
Format: cell membranes, Rattus norvegicus, Wistar, Cerebral cortex, Membrane
Settings: Not Active = under 50% inhibition at 10 µM

Compound	IC50	Ki
C=C1C(=O)O[C@@H]2C3O[C@]3(C)CC/C=C(\C)CC[C@@H]12 (stereo partly specified)	Not Active	Not Active
CCOC(=O)c1ccc(N)cc1 [BENZOCAINE]	Not Active	Not Active
OXALIPLATIN	Not Active	Not Active
CCCCCCCCCc1ccc(O)cc1 [4-NONYLPHENOL]	Not Active	Not Active
c1ccc2c(c1)cc1ccc3cccc4ccc2c1c34	Not Active	Not Active
CNCCC=C1c2ccccc2CCc2ccccc21 [NORTRIPTYLINE]	Not Active	Not Active

Tested on: not listed separately
Assay: DRUGMATRIX: ATPase, Na+/K+ enzyme inhibition (substrate: ATP)
Format: tissue-based, Sus scrofa, Heart
Settings: Not Active = under 50% inhibition at 10 µM

Compound	IC50	Ki
C=C1C(=O)O[C@@H]2C3O[C@]3(C)CC/C=C(\C)CC[C@@H]12 (stereo partly specified)	Not Active	Not Active
CCOC(=O)c1ccc(N)cc1 [BENZOCAINE]	Not Active	Not Active
OXALIPLATIN	Not Active	Not Active
CCCCCCCCCc1ccc(O)cc1 [4-NONYLPHENOL]	Not Active	Not Active
c1ccc2c(c1)cc1ccc3cccc4ccc2c1c34	Not Active	Not Active
CNCCC=C1c2ccccc2CCc2ccccc21 [NORTRIPTYLINE]	Not Active	Not Active

Biological target: T3, C-C chemokine receptor type 4 (Homo sapiens, UniProt P51679); note: in other assays of this panel Not Active means under 50% inhibition at 10 µM
T3 sequence (P51679 whole entry): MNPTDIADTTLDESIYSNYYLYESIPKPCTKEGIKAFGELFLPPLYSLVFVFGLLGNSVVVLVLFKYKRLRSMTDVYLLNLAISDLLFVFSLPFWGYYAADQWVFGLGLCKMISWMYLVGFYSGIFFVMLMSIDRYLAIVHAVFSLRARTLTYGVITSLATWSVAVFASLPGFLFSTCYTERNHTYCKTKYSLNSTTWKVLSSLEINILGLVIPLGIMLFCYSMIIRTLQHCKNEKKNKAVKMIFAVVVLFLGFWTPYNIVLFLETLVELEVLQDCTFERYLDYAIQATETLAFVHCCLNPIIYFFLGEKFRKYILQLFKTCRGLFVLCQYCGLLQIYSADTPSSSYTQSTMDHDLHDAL
Assay: not given
Format: cell membranes, Membrane
Settings: chem-1

Compound	IC50	Ki
C=C1C(=O)O[C@@H]2C3O[C@]3(C)CC/C=C(\C)CC[C@@H]12 (stereo partly specified)	Not Active	–
CCOC(=O)c1ccc(N)cc1 [BENZOCAINE]	Not Active	–
OXALIPLATIN	Not Active	Not Active
CCCCCCCCCc1ccc(O)cc1 [4-NONYLPHENOL]	Not Active	–
c1ccc2c(c1)cc1ccc3cccc4ccc2c1c34	Not Active	–
CNCCC=C1c2ccccc2CCc2ccccc21 [NORTRIPTYLINE]	Not Active	–

Biological target: Insulin receptor (Rattus norvegicus, UniProt P15127); note: in other assays of this panel Not Active means under 50% inhibition at 10 µM
Assay: not given
Format: cell membranes, Wistar, Liver, Membrane
Settings: not given

Chain of Insulin receptor (P15127 27-759 limits assumed): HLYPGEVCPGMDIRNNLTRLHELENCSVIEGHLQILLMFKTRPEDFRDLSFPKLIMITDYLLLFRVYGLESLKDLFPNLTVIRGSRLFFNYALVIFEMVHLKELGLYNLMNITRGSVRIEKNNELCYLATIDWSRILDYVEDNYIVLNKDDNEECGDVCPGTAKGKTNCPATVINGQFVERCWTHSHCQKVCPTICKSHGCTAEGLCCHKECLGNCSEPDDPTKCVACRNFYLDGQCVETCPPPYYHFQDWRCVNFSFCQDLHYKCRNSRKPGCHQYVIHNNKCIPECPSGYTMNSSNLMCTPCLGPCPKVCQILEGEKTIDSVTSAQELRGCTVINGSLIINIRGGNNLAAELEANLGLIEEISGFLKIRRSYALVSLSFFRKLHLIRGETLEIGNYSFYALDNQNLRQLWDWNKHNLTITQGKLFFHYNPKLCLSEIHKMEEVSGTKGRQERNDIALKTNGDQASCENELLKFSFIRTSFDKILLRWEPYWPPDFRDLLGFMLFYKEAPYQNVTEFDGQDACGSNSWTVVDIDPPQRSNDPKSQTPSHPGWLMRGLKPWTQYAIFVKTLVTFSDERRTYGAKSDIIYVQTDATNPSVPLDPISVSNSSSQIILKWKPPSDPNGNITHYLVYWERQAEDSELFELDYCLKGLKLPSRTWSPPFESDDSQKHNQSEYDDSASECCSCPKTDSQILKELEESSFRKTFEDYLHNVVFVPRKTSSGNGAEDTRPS
Chain of Insulin receptor (P15127 764-1383 limits assumed): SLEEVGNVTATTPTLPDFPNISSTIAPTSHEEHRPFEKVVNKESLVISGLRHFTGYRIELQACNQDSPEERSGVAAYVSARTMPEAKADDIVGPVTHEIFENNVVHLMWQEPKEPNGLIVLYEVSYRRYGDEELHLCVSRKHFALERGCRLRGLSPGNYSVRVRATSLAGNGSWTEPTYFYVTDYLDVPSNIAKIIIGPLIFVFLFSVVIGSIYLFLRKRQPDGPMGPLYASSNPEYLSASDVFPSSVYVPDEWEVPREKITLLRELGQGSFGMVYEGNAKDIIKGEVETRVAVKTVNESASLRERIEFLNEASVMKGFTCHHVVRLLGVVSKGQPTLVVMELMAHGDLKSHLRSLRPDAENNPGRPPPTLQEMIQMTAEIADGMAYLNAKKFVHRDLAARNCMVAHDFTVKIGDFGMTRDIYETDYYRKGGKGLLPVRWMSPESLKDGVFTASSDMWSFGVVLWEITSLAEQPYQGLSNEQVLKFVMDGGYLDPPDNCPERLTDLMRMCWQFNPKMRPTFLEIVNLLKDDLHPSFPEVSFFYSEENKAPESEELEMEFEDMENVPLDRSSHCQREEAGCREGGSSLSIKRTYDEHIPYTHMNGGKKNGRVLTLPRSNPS

Compound	IC50	Ki
C=C1C(=O)O[C@@H]2C3O[C@]3(C)CC/C=C(\C)CC[C@@H]12 (stereo partly specified)	Not Active	–
CCOC(=O)c1ccc(N)cc1 [BENZOCAINE]	Not Active	–
OXALIPLATIN	Not Active	Not Active
CCCCCCCCCc1ccc(O)cc1 [4-NONYLPHENOL]	Not Active	–
c1ccc2c(c1)cc1ccc3cccc4ccc2c1c34	Not Active	–
CNCCC=C1c2ccccc2CCc2ccccc21 [NORTRIPTYLINE]	Not Active	–

Tested on: not listed separately
Assay: DRUGMATRIX: Phorbol Ester radioligand binding (ligand: [3H] PDBu)
Format: cell membranes, Mus musculus, ICR, Brain, Membrane
Settings: Not Active = under 50% inhibition at 10 µM

Compound	IC50	Ki
C=C1C(=O)O[C@@H]2C3O[C@]3(C)CC/C=C(\C)CC[C@@H]12 (stereo partly specified)	Not Active	Not Active
CCOC(=O)c1ccc(N)cc1 [BENZOCAINE]	Not Active	Not Active
OXALIPLATIN	Not Active	Not Active
CCCCCCCCCc1ccc(O)cc1 [4-NONYLPHENOL]	Not Active	Not Active
c1ccc2c(c1)cc1ccc3cccc4ccc2c1c34	Not Active	Not Active
CNCCC=C1c2ccccc2CCc2ccccc21 [NORTRIPTYLINE]	Not Active	Not Active

Biological target: T4, Neuropeptide Y receptor type 1 (Homo sapiens, UniProt P25929); note: in other assays of this panel Not Active means under 50% inhibition at 10 µM
T4 sequence (P25929 whole entry): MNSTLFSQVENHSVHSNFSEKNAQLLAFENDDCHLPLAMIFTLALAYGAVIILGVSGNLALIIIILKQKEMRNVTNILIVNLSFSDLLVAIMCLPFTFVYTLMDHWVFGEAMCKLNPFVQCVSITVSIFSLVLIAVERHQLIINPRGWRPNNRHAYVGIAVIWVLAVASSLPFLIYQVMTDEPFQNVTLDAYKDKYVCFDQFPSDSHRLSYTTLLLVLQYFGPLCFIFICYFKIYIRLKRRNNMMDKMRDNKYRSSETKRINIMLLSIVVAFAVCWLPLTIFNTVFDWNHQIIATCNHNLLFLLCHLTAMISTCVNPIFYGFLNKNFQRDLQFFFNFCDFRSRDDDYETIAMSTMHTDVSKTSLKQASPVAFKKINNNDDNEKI
Assay: not given
Format: cell membranes, Membrane
Settings: sk-n-mc

Compound	IC50	Ki
C=C1C(=O)O[C@@H]2C3O[C@]3(C)CC/C=C(\C)CC[C@@H]12 (stereo partly specified)	Not Active	–
CCOC(=O)c1ccc(N)cc1 [BENZOCAINE]	Not Active	–
OXALIPLATIN	Not Active	Not Active
CCCCCCCCCc1ccc(O)cc1 [4-NONYLPHENOL]	Not Active	–
c1ccc2c(c1)cc1ccc3cccc4ccc2c1c34	Not Active	–
CNCCC=C1c2ccccc2CCc2ccccc21 [NORTRIPTYLINE]	Not Active	–

Biological target: T5, Nitric oxide synthase, inducible (Mus musculus, UniProt P29477)
T5 sequence (P29477 whole entry): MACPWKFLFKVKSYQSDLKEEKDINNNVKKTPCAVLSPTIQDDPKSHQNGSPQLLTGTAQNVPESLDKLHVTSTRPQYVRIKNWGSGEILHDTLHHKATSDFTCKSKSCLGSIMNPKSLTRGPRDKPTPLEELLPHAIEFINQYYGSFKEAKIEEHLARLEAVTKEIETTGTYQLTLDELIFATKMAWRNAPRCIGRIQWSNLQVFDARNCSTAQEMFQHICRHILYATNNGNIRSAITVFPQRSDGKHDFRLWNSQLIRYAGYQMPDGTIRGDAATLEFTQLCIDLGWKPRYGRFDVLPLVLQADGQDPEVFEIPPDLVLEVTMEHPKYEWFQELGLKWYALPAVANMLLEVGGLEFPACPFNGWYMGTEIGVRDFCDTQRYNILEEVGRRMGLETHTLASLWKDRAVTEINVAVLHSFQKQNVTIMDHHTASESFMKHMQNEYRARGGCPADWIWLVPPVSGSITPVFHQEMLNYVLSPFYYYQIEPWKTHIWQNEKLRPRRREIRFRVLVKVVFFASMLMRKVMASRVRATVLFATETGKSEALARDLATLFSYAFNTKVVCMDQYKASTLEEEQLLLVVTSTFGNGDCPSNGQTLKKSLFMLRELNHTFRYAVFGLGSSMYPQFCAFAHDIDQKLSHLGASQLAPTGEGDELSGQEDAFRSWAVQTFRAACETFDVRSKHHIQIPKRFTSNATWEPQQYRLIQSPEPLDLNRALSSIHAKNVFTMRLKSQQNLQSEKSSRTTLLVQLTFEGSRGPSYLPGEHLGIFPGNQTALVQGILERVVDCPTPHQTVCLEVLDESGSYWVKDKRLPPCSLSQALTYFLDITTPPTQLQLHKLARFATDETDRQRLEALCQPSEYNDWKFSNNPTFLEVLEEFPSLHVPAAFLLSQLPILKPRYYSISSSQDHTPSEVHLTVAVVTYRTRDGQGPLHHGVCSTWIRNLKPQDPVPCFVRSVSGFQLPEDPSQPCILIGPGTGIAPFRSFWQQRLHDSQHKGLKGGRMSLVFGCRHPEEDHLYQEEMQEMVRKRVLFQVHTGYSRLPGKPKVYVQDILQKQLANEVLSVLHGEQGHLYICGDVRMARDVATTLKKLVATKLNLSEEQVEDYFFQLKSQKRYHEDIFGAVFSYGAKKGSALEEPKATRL
Assay: not given
Parameters: species or system Escherichia coli
Settings: not given

Compound	IC50	Ki
C=C1C(=O)O[C@@H]2C3O[C@]3(C)CC/C=C(\C)CC[C@@H]12 (stereo partly specified)	Not Active	–
CCOC(=O)c1ccc(N)cc1 [BENZOCAINE]	Not Active	–
OXALIPLATIN	Not Active	Not Active
CCCCCCCCCc1ccc(O)cc1 [4-NONYLPHENOL]	Not Active	–
c1ccc2c(c1)cc1ccc3cccc4ccc2c1c34	Not Active	–
CNCCC=C1c2ccccc2CCc2ccccc21 [NORTRIPTYLINE]	Not Active	–

Biological target: cGMP-specific 3',5'-cyclic phosphodiesterase (Homo sapiens, UniProt O76074)
Assay: DRUGMATRIX: Phosphodiesterase PDE5 enzyme inhibition (substrate: [3H]cGMP + cGMP)
Format: tissue-based, Platelet
Settings: platelet; Not Active = under 50% inhibition at 10 µM

Compound	IC50	Ki
C=C1C(=O)O[C@@H]2C3O[C@]3(C)CC/C=C(\C)CC[C@@H]12 (stereo partly specified)	Not Active	–
CCOC(=O)c1ccc(N)cc1 [BENZOCAINE]	Not Active	–
OXALIPLATIN	Not Active	Not Active
CCCCCCCCCc1ccc(O)cc1 [4-NONYLPHENOL]	Not Active	–
c1ccc2c(c1)cc1ccc3cccc4ccc2c1c34	Not Active	–
CNCCC=C1c2ccccc2CCc2ccccc21 [NORTRIPTYLINE]	Not Active	–

Reference: ChEMBL document CHEMBL1909046, “DrugMatrix in vitro pharmacology data”
